This note sets out measurements from patent US11053234B2 (GlaxoSmithKline Intellectual Property Development Limited, priority 2016, dated 2021).

This assay deals with T1, haematopoietic prostaglandin D synthase (H-PGDS) (Homo sapiens, UniProt O60760).
T1 construct: Full length human H-PGDS cDNA (Invitrogen Ultimate ORF 10H13026) was amplified by PCR; 6-His (N); TEV protease cleavage site (N); made in house; host or cells: E. coli BL21 (DE3*), vector pET22b+
In words: H-PGDS RapidFire high throughput mass spectrometry assay (conversion of PGH2 to PGD2). The format is biochemical. The conditions noted are these: 10 nM H-PGDS, PGH2 formed in situ by COX-2 from arachidonic acid; read-out: Potency Range (mean pIC50) (converted). As for the experimental part:
H-PGDS RapidFire™ High Throughput Mass Spectrometry Assay
The H-PGDS RapidFire™ mass spectrometric assay monitors conversion of prostaglandin H2 (PGH2) to prostaglandin D2 (PGD2) by haematopoietic prostaglandin D synthase (H-PGDS). In the assay format described here, the substrate (PGH2) is formed in situ by the action of cyclooxygenase-2 on arachidonic acid. This first step is set up to be fast, and generates a burst of PGH2 at ˜10 μM. The PGH2 is then further converted to PGD2 by the H-PGDS enzyme. […] Plates are then read on the RapidFire™ high throughput solid phase extraction system (Agilent) which incorporates a solid phase extraction step coupled to a triple quadrupole mass spectrometer (AB SCIEX). Relative levels of PGD2 and PGF2α, which acts as a surrogate for substrate, are measured and a percent conversion calculated.
Expression and Purification of H-PGDS Protein
Full length human H-PGDS cDNA (Invitrogen Ultimate ORF 10H13026) was amplified by PCR with the addition of a 5′ 6-His tag and TEV protease cleavage site. The PCR product was digested with Ndel and Xhol and ligated into pET22b+ (Merck Novagen®). Expression was carried out in E. coli strain BL21 (DE3*) using auto-induction Overnight Express™ Instant TB medium (Merck Novagen®) supplemented with 1% glycerol. The culture was first grown at 37° C. and the temperature was reduced to 25° C. when OD600 reached 2.0. Cells were harvested by centrifugation after a further 18 hr. 10 g of E. coli cell pellet was suspended to a total volume of 80 mL in lysis buffer (20 mM Tris-Cl pH 7.5, 300 mM NaCl, 20 mM imidazole, 5 mM β-mercaptoethanol, 10% glycerol). 1 mg/mL protease inhibitors (Protease Inhibitor Cocktail Set III, Merck Calbiochem®) and 1 mg/mL lysozyme were added to the cell suspension. The suspension was then sonicated for 5 min (UltraSonic Processor VCX 750, Cole-Parmer Instrument Co.) with a micro probe (50% amplitude, 10 sec on/off) and then centrifuged at 100,000 g for 90 min (at 4° C.). The supernatant was loaded onto a Ni-NTA HiTrap column (5 mL, GE Healthcare, pre-equilibrated in lysis buffer). The column was washed with 10 column volumes of lysis buffer and eluted with lysis buffer containing 500 mM imidazole. The pooled protein peak fractions were concentrated using a 10 kDa centrifugal filter at 3500 g and 4° C. (Amicon Ultra-15 centrifugal filter unit with Ultracel-10 membrane from Millipore). Further purification of the concentrated protein was carried out using gel filtration chromatography on a HiLoad 26/600 Superdex 75 preparative grade column (GE Healthcare Life Sciences) using 50 mM Tris pH 7.5, 50 mM NaCl, 1 mM dithiothreitol, 1 mM MgCl2. Fractions containing the protein were pooled, concentrated as described above, and stored at −80° C.
Expression and Purification of Cyclooxygenase-2 (COX-2) Protein
The full length human COX-2 gene (accession number L15326) was amplified by PCR to generate an EcoRI-HindIII fragment containing an in-frame FLAG tag. This was subcloned into pFastBac 1 (Invitrogen). The COX2 FLAG plasmid was recombined into the baculovirus genome according to the BAC-to-BAC protocol described by Invitrogen. Transfection into Spodoptera frugiperda (Sf9) insect cells was performed using Cellfectin (Invitrogen), according to the manufacturer's protocol. […] Cells were harvested using a continuous feed centrifuge run at 2500 g at a rate of approximately 2 L/min with cooling. The resultant cell slurry was re-centrifuged in pots (2500 g, 20 min, 4° C.) and the cell paste was stored at −80° C. […] The suspension was sonicated in 500 mL batches for 8×5 seconds at 10 u amplitude with the medium tip of an MSE probe sonicator and subsequently incubated at 4° C. for 90 min with gentle stirring. The lysate was centrifuged at 12000 rpm for 45 min at 4° C. in a Sorvall SLA1500 rotor. The supernatant (1400 mL) was added to 420 mL of 20 mM Tris-Cl pH 7.4, 150 mM NaCl, 0.1 mM EDTA to reduce the concentration of n-octyl-6-D-glucopyranoside to 1% w/v.

T1 sequence (O60760 whole entry): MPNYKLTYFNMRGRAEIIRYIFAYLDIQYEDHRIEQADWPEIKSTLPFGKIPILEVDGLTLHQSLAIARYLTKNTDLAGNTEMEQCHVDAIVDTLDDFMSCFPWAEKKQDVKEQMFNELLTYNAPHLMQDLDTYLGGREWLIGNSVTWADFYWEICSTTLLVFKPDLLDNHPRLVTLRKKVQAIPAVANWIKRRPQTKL

In the case of `O=C(N[C@H]1CC[C@H](OCC(O)C2CC2)CC1)[C@H]1C[C@H](Oc2cc(F)ccc2OC(F)F)C1` (mixture of isomers) [Example 9, Racemic (trans)-N-((trans)-4-(2-Cyclopropyl-2-hydroxyethoxy)cyclohexyl)-3-(2-(difluoromethoxy)-5-fluorophenoxy)cyclobutanecarboxamide], the IC50 was 10 to 79.4 nM.
The result for `CC(O)(CO[C@H]1CC[C@H](NC(=O)[C@H]2C[C@H](Oc3cc(F)ccc3OC(F)F)C2)CC1)C1CC1` (mixture of isomers) [Example 11, Racemic (trans)-N-((trans)-4-(2-Cyclopropyl-2-hydroxypropoxy)cyclohexyl)-3-(2-(difluoromethoxy)-5-fluorophenoxy)cyclobutanecarboxamide] reads 10 to 79.4 nM; that for `CC(C(F)F)N1CCC(NC(=O)[C@H]2C[C@H](Oc3cc(F)ccc3OC(F)F)C2)CC1` (mixture of isomers) [Example 21, Racemic (trans)-3-(2-(Difluoromethoxy)-5-fluorophenoxy)-N-(1-(1,1-difluoropropan-2-yl)piperidin-4-yl)cyclobutanecarboxamide], 10 to 79.4 nM; that for `CC(N[C@H]1CC[C@H](NC(=O)[C@H]2C[C@H](Oc3cc(F)ccc3OC(F)F)C2)CC1)C(F)F` (mixture of isomers) [Example 23, Racemic (trans)-3-(2-(Difluoromethoxy)-5-fluorophenoxy)-N-((trans)-4-((1,1-difluoropropan-2-yl)amino)cyclohexyl)cyclobutanecarboxamide], 10 to 79.4 nM.
Next, `O=C1Nc2ccccc2C1NC(=O)[C@H]1C[C@H](Oc2cc(F)ccc2OC(F)F)C1` (mixture of isomers) [Example 24, Racemic (trans)-3-(2-(Difluoromethoxy)-5-fluorophenoxy)-N-(2-oxoindolin-3-yl)cyclobutanecarboxamide]: 10 to 79.4 nM; `O=C1CC(NC(=O)[C@H]2C[C@H](Oc3cc(F)ccc3OC(F)F)C2)c2ccccc2N1` (mixture of isomers) [Example 25, Racemic (trans)-3-(2-(Difluoromethoxy)-5-fluorophenoxy)-N-(2-oxo-1,2,3,4-tetrahydroquinolin-4-yl)cyclobutanecarboxamide]: 10 to 79.4 nM.
The result for `CC(O)[C@H]1CC[C@H](NC(=O)[C@H]2C[C@H](Oc3cc(F)ccc3OC(F)F)C2)CC1` (mixture of isomers) [Example 26] reads 10 to 79.4 nM; that for `O=C(N[C@H]1CC[C@H](C(O)C2CC2)CC1)[C@H]1C[C@H](Oc2cc(F)ccc2OC(F)F)C1` (mixture of isomers) [Example 27, Racemic (trans)-N-((trans)-4-(Cyclopropyl(hydroxy)methyl)cyclohexyl)-3-(2-(difluoromethoxy)-5-fluorophenoxy)cyclobutanecarboxamide], 10 to 79.4 nM.
Regarding `CC(O)([C@H]1CC[C@H](NC(=O)[C@H]2C[C@H](Oc3cc(F)ccc3OC(F)F)C2)CC1)C(F)(F)F` (mixture of isomers) [Example 28, Racemic (trans)-3-(2-(Difluoromethoxy)-5-fluorophenoxy)-N-((trans)-4-(1,1,1-trifluoro-2-hydroxypropan-2-yl)cyclohexyl)cyclobutanecarboxamide], the IC50 is 10 to 79.4 nM.
Next, `CC(N[C@H]1CC[C@H](NC(=O)N2CC(Oc3cccc4scnc34)C2)CC1)C(F)F` (mixture of isomers) [Example 40, Racemic 3-(Benzo[d]thiazol-4-yloxy)-N-((trans)-4-((1,1-difluoropropan-2-yl)amino)cyclohexyl)azetidine-1-carboxamide]: 10 to 79.4 nM.
The result for `CC(N[C@H]1CC[C@H](NC(=O)[C@H]2C[C@H](Oc3cccc4scnc34)C2)CC1)C(F)F` (mixture of isomers) [Example 46, Racemic (trans)-3-(Benzo[d]thiazol-4-yloxy)-N-((trans)-4-((1,1-difluoropropan-2-yl)amino)cyclohexyl)cyclobutanecarboxamide] reads 10 to 79.4 nM; that for `CC(C)(O)[C@@H]1CC[C@@H](NC(=O)[C@H]2C[C@H](Oc3cccc4scnc34)C2)CO1` (racemic) [Example 51, Racemic (trans)-3-(Benzo[d]thiazol-4-yloxy)-N-((trans)-6-(2-hydroxypropan-2-yl)tetrahydro-2H-pyran-3-yl)cyclobutanecarboxamide], 10 to 79.4 nM; that for `O=C(NC1CCN(c2ccccn2)C1)[C@H]1C[C@H](Oc2cccc3scnc23)C1` (mixture of isomers) [Example 82, Racemic (trans)-3-(Benzo[d]thiazol-4-yloxy)-N-(1-(pyridin-2-yl)pyrrolidin-3-yl)cyclobutanecarboxamide], 10 to 79.4 nM.
Regarding `CC(C)(O)C1CC2(CC(NC(=O)[C@H]3C[C@H](Oc4cccc5scnc45)C3)C2)C1` (mixture of isomers) [Example 83, Racemic (trans)-3-(Benzo[d]thiazol-4-yloxy)-N-(6-(2-hydroxypropan-2-yl)spiro[3.3]heptan-2-yl)cyclobutanecarboxamide], the IC50 was 10 to 79.4 nM.
Next, `O=C1CC(NC(=O)[C@H]2C[C@H](Oc3cccc4scnc34)C2)c2ccccc2N1` (mixture of isomers) [Example 84, Racemic (trans)-3-(Benzo[d]thiazol-4-yloxy)-N-(2-oxo-1,2,3,4-tetrahydroquinolin-4-yl)cyclobutanecarboxamide]: 10 to 79.4 nM; `CC(N1CCC(NC(=O)N2CC(Oc3cccc4scnc34)C2)CC1)C(F)(F)F` (racemic) [Example 86, Racemic 3-(Benzo[d]thiazol-4-yloxy)-N-(1-(1,1,1-trifluoropropan-2-yl)piperidin-4-yl)azetidine-1-carboxamide]: 10 to 79.4 nM.
The result for `O=C(NC1CCN(c2ccccn2)C1)N1CC(Oc2cccc3scnc23)C1` (racemic) [Example 87, Racemic 3-(Benzo[d]thiazol-4-yloxy)-N-(1-(pyridin-2-yl)pyrrolidin-3-yl)azetidine-1-carboxamide] reads 100 to 1000 nM; that for `O=C(NC1CCCOC1)N1CC(Oc2cccc3scnc23)C1` (racemic) [Example 90, Racemic 3-(Benzo[d]thiazol-4-yloxy)-N-(tetrahydro-2H-pyran-3-yl)azetidine-1-carboxamide], 100 to 1000 nM.
The result for `CC(=O)N1CCCC(NC(=O)N2CC(Oc3cccc4scnc34)C2)C1` (racemic) [Example 92, Racemic N-(1-Acetylpiperidin-3-yl)-3-(benzo[d]thiazol-4-yloxy)azetidine-1-carboxamide] reads 100 to 1000 nM; that for `COC(=O)N1CCCC(NC(=O)N2CC(Oc3cccc4scnc34)C2)C1` (racemic) [Example 93, Racemic Methyl 3-(3-(benzo[d]thiazol-4-yloxy)azetidine-1-carboxamido)piperidine-1-carboxylate], 100 to 1000 nM.
Take `COC(=O)N1CCOC(CNC(=O)N2CC(Oc3cccc4scnc34)C2)C1` (racemic) [Example 94, Racemic Methyl 2-((3-(benzo[d]thiazol-4-yloxy)azetidine-1-carboxamido)methyl)morpholine-4-carboxylate]: the IC50 was 100 to 1000 nM.
On to `CC(O)(CO[C@H]1CC[C@H](NC(=O)N2CC(Oc3cccc4scnc34)C2)CC1)C1CC1` (mixture of isomers) [Example 100, Racemic 3-(Benzo[d]thiazol-4-yloxy)-N-((trans)-4-(2-cyclopropyl-2-hydroxypropoxy)cyclohexyl)azetidine-1-carboxamide], for which the IC50 was 10 to 79.4 nM.
